Values quoted from earlier work in patent publication US20050042196A1, “Antimicrobial phenol containing cyanoacrylate compositions” (priority 2003, published 2005).

Conditions: aqueous

[O-][Cl+3]([O-])([O-])O [perchloric acid]
pKa: −5
